The subject of one series is ovine COX-1. More on the design: method as in PMID 25074039. The following applies: ovine COX-1/COX-2 assay kit; cited from earlier work.
Another series has as its system ovine COX-2. More on the design: method as in PMID 25074039. The following applies: ovine COX-1/COX-2 assay kit; cited from earlier work.
Series [1] relates to lipid peroxidation products (TBARS). Briefly: TBARS assay in brain of LPS-injected mice. It counts as in vivo, C57BL/6 mice. To be noted: 10 mg/kg for 3 days, 72 h after LPS. The text has this: All experiments adhered to regulations of DIRECTIVE 2010/63/EU on the protection of laboratory animals. The procedures with animals were reviewed and approved by the Ethics Committee of Smorodintsev Research Institute of Influenza. […]. The animals were housed in a climate-controlled room with a 12/12-h light cycle. The subjects had ad libitum access to food and water during housing. Neuroinflammation was modeled in animals by intraperitoneal (i.p.) single injection of LPS from Escherichia coli saline O111:B4 (Sigma-Aldrich) at a dose of 2 mg/kg.
In total, 7 groups of 5 individuals in each were studied, including a group of intact animals. […]. The blood collected after decapitation was left in tubes with a serum separator for 30 min, then centrifuged at 611 g (3000 rpm) and 4 °C for 10 min. Blood and brain samples were frozen and stored at −20 °C.
The brain was weighed and 2 mL of ice-cold endotoxin-free PBS containing 0.1% non-ionic detergent Triton X-100 was added to the tissue samples left under ice for 10 min until homogenized with a tissue disruptor. […]
The supernatant diluted with buffer 1:10 was used for analysis. […] Each sample (150 μL) was loaded in duplicate into a 96-well plate, and the absorbance was measured at 535 nm on an EPOCH2TC.

For a further series, the system named is IL-6 and TNF-α. Briefly: Cytokine assay (ELISA) in LPS-induced neuroinflammation in mice. It counts as in vivo, C57BL/6 mice. The following applies: 10 mg/kg for 3 days, 72 h after LPS.
A short description of series [2]: Ex vivo biodistribution in intact, LPS-treated and celecoxib-blocked rats. More on the design: species or system Wistar rats. Here is the method: Ex vivo biodistribution was intended as a preliminary assessment of the BBB permeability and overall distribution of [^18F]F-IV in LPS-treated and intact Wistar rats. [^18F]F-IV uptake by tissue was expressed as %ID/g (dose administered per gram of tissue). […] The radioligand seems to readily penetrate the BBB, as evidenced by the high initial rate of brain uptake with a peak value of 2.21 ± 0.64 and 2.09 ± 0.65 (%ID/g) in the pons and medulla, respectively, at 10 min post-injection, (Figure 6A). […] The excretion pathway was through the kidneys, and 60 min after injection there was no obvious difference in [^18F]F-IV uptake values between tissues. The lack of significant specific accumulation of radioactivity in the brain, heart, lungs, and kidneys most likely reflects the low baseline level of COX-2 expression in these organs in healthy animals. It should be noted that relatively high initial levels of radioactivity in the blood pool persisted even 120 min after injection of [^18F]F-IV (0.99 ± 0.17 vs. 1.35 ± 0.06%ID/g). This was the main difference in the distribution of [^18F]F-IV and the previously reported [^11C]MPbP in organs and tissues of intact rats.
Ex vivo radioligand biodistribution was performed by direct radiometry of organs and tissue samples of Wistar rats. Each rat was injected with (12 ± 3) MBq (volume ≤ 0.2 mL) of [^18F]F-IV through the tail vein under anesthetic conditions. Control rats were sacrificed at 10 (n = 3), 30 (n = 3), 60 (n = 3), and 120 (n = 3) min after injection. Twenty-four hours prior to ex vivo biodistribution studies, 6 rats received an intraperitoneal (i.p.) injection of LPS (2 mg/kg) from Escherichia coli (O111: B4) or saline (1 mL/kg).
Blood samples and organs of interest, namely, the brain (cerebral cortex, cerebellum, medulla, and pons), thymus, heart, lung, spleen, kidney, liver, bladder, and muscle, were removed and weighed. The radioactivity in each tissue sample was measured by a γ-counter to calculate the percentage of injected dose per gram of tissue (%ID/g). Data were provided as mean ± SEM values.

Series [3] can be described thus: logD7.4 determination, shake-flask method. It is filed as physicochemical. To be noted: 1-octanol/phosphate buffer pH 7.4, n = 6; read-out: lipophilicity (logD7.4). On the procedure: The partition coefficient of [^18F]F-IV (log D7.4) was determined by the shake-flask method for measuring the distribution of radioactivity between 1-octanol and phosphate buffer pH 7.4. Into a tube containing 10 µL of [^18F]F-IV (~1 MBq), 1.5 mL of pre-saturated 1-octanol and 1.5 mL of phosphate buffer were added and vortexed for 15 min. Then, the tube was centrifuged at 3000 g for 5 min to ensure complete separation of the phases. Then, aliquots of 500 μL were taken from each phase into separate tubes and the radioactivity was measured in a γ-counter. The measurements were performed in triplicate. The log D7.4 value was calculated as follows: log (counts per min in 1-octanol/ counts per min in PBS) for five independent experiments.

Series [4] is described as follows: Plasma protein binding by ultrafiltration, human plasma. It is filed as in vitro ADME. On the procedure: (§1) The ultrafiltration method was used to estimate the protein-free fraction of [^18F]F-IV and [^11C]MPbP in human and rat plasma. Equal volumes (500 μL) of plasma or PBS (control) were mixed with the formulated solution of radioligand (5 MBq,50μL) and incubated at 37 °C for 15 min. After incubation, aliquots of mixture (200 µL) were transferred to the tubes for ultrafiltration (Amicon 3K; Merck) and centrifuged at 7000 g for 15 min. Equal aliquots (20 μL) of ultrafiltrate (Cfree) and plasma (Ctotal) were measured with γ-counter. The obtained data were corrected for the radioligand binding to the filter membrane. Filtrations were performed in duplicate. The unbound (free) fraction of the radioligand was calculated as fu(%) = Cfree/Ctotal × 100%.

Series [5] is described as follows: Plasma protein binding by ultrafiltration, rat plasma. It is filed as in vitro ADME. On the procedure: as §1
A short description of series [6]: Plasma-stability study (radio-HPLC). It is filed as in vitro ADME. To be noted: 37 °C, up to 60 min. On the procedure: The stability of [^18F]F-IV was investigated in human plasma at 37 °C in the range from 0 to 60 min according to a modified protocol. Phosphate-buffered saline (PBS, 0.15 M, pH 7.4) was used as a control. [^18F]F-IV formulated solution (10 µL, ~1 MBq) was added to tubes with PBS (300 µL) and human plasma (300 µL). The mixture was vortexed and incubated at 37 °C. An aliquot of 100 µL from the sample was taken at different time points (0, 10, 20, 40, and 60 min) and mixed with 100 µL ice-cooled acetonitrile and centrifuged (3 min, 4500× g). The supernatants were analyzed by radio-HPLC using XBridge C18 analytical column.

In series [7] the target is T1, human recombinant COX-2 (Homo sapiens, UniProt P35354).
T1 sequence (P35354 18-604): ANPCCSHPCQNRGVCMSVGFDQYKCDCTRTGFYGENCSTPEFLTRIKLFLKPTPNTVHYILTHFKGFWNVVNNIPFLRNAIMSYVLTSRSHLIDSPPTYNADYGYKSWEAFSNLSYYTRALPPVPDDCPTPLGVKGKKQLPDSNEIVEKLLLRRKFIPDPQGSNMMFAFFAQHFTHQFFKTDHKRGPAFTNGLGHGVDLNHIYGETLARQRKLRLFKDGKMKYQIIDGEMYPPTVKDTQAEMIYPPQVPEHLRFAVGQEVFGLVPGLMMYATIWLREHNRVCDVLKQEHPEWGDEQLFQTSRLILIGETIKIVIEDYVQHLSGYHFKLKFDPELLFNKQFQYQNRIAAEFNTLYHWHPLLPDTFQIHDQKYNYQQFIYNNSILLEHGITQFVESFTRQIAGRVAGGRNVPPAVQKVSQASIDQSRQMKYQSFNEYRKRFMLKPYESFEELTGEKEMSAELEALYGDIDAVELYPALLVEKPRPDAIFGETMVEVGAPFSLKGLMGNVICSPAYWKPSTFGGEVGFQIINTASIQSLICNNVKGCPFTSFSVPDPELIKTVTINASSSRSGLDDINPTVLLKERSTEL
Briefly: COX (human) Inhibitor Screening Assay kit (EIA), COX-2.

Series [8] deals with T1, human recombinant COX-2. Details: purchased Cayman Chemical Company 701230. To be noted: cited from earlier work.
Series [9] has as its target T2, human recombinant COX-1 (Homo sapiens, UniProt P23219). Details: purchased Cayman Chemical Company 701230. The following applies: human COX-1/COX-2 assay kit; cited from earlier work.
On the set-up of series [10]: method as in doi:10.1002/slct.201904788. The following applies: all examined organs and brain regions; cited from earlier work.
The target in series [11] is T2, human recombinant COX-1. Briefly: COX (human) Inhibitor Screening Assay kit (EIA), COX-1.
[12] abbreviates: %ID organ/%ID blood, 60 min post-injection.
[13] abbreviates: healthy (intact) rats, 10 min post-injection.
[14] abbreviates: human plasma, read-out: PPB level, humans (converted).
Where [15] appears, read: unbound (free) fraction, 37 °C, n = 6, read-out: fu in Human Plasma.
Setting [16] is: rat plasma, read-out: PPB level, rats (converted).
[17] abbreviates: unbound (free) fraction, 37 °C, n = 3, read-out: fu in Rat Plasma.

Where two headings read alike, the source gives them in different places.

T2 sequence (P23219 24-599): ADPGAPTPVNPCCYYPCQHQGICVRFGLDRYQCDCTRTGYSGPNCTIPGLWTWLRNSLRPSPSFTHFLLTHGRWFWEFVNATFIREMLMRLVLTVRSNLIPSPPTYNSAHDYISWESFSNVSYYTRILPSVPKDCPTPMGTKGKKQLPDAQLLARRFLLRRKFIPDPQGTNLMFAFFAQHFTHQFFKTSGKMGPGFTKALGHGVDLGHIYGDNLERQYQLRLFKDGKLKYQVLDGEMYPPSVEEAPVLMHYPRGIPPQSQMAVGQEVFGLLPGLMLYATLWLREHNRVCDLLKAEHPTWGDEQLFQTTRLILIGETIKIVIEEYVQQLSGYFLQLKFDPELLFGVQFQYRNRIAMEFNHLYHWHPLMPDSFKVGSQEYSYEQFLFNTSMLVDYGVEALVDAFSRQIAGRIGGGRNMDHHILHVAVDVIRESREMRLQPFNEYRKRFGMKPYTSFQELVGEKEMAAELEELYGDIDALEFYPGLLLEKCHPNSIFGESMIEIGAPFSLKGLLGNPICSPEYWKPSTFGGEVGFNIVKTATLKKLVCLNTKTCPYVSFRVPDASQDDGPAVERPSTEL

`C=CCc1ccc(O)c(-c2ccc(OC)c(CC=C)c2)c1` [MH, 4′-O-methylhonokiol]: the half-maximal inhibitory concentration (IC50) in the series on ovine COX-1 was 2400 nM; with ovine COX-2, 60 nM.
Regarding `Cc1ccc(-c2cc(C(F)(F)F)nn2-c2ccc(S(N)(=O)=O)cc2)cc1` [Celecoxib, celecoxib, reference compound], the “reduction of TBARS levels in brain” value in [1] is on record as “little or no effect”. Moreover, in the series on IL-6 and TNF-α, the “serum levels of IL-6 and TNF-α” value is given as “reduced them to levels seen in intact animals”.
For `CCCc1ccc(O)c(-c2ccc(OCC[18F])cc2)c1` [[^18F]F-IV, 4′-(2-[^18F]fluoroethoxy)-2-hydroxy-5-propyl-1,1′-biphenyl], in series [2] (setting [12]), the “increase in radioactivity in LPS animals vs controls, kidney” value was determined as 16%; the “increase in radioactivity in LPS animals vs controls, liver” value came out at 23%; the “increase in radioactivity in LPS animals vs controls, lung” value was 12%; the “increase in radioactivity in LPS animals vs controls, spleen” value is recorded as 20%. For the same compound, in [2] (setting [12]), the “increase in radioactivity in LPS animals vs controls, thymus” value worked out at 20%; the “increase in uptake in LPS-treated vs saline-injected rats, medulla” value stood at 16%; the “increase in uptake in LPS-treated vs saline-injected rats, pons” value is on record as 5%. Also, the “reduction in radioactivity by celecoxib blocking” value in series [2] (LPS rats, celecoxib 10 mg/kg i.v. 30 min before radioligand, brain (pons and medulla), heart, lung, kidney) was 20–32%. Moreover, in series [2] (setting [13]), the “brain uptake peak value, medulla” value came to 2.09 ± 0.65 %ID/g and the “brain uptake peak value, pons” value was 2.21 ± 0.64 %ID/g. Further, the “radioactivity in the blood pool” value in [2] (intact rats, 120 min after injection) was determined as 0.99 ± 0.17 %ID/g. Besides, in series [2] (intact rats, initial (10 min) level), the “radioactivity in the blood pool, initial level” value worked out at 1.35 ± 0.06 %ID/g. For the same compound, the logD in [3] stood at 3.3 ± 0.1. The fraction unbound at 15 min, 9.1 MBq/mL in series [4] (setting [14]) is below 0.01. Besides, in [4] (setting [15]), the fraction unbound at 15 min, 9.1 MBq/mL amounted to 0.0019 ± 0.0005. In addition, in [5] (setting [16]), the fraction unbound at 15 min, 9.1 MBq/mL was below 0.02. Also, in series [5] (setting [17]), the fraction unbound at 15 min, 9.1 MBq/mL is 0.0201 ± 0.0026. For the same compound, the “radiochemical stability in human plasma” value in series [6] is recorded as 92%.
Turning to `CCCc1ccc(O)c(-c2ccc(OCCF)c(OC)c2)c1` [F-III, 4′-(2-fluoroethoxy)-3′-methoxy-5-propyl-2-hydroxy-1,1′-biphenyl], in series [1], the “reduction of TBARS levels in brain” value came to 116%.
With `CCCc1ccc(O)c(-c2ccc(OC)cc2)c1` [MPbP], on human recombinant COX-2 [7] (from experimental IC50 values), the “experimental ddG between MPbP and F-IV for COX-2” value was 0.22 kcal/mol. At human recombinant COX-2 [8] (SI = COX-1 IC50/COX-2 IC50, human assay kit), the “SI (Selectivity Index)” value was 18. In addition, the results for the half-inhibitory concentration (IC50) at human recombinant COX-2 [8] (human COX-1/COX-2 assay kit) and on human recombinant COX-1 [9] were 140 nM and 2530 nM, respectively.
As to `CCCc1ccc(O)c(-c2ccc(O[11CH3])cc2)c1` [[^11C]MPbP, 4′-[^11C]methoxy-5-propyl-1,1′-biphenyl-2-ol, reference compound], in series [10], the “uptake in LPS rats vs healthy rats” value was “up to 400%”. The fraction unbound at 15 min, 9.1 MBq/mL in series [4] (setting [14]) is 0.02; in [4] (setting [15]), 0.0188 ± 0.0013; in [5] (setting [16]) it was 0.08; in [5] (setting [17]), 0.0802 ± 0.0037.
In the case of `CCCc1ccc(O)c(-c2ccc(OCCF)cc2)c1` [F-IV, 4′-(2-fluoroethoxy)-2-hydroxy-5-propyl-1,1′-biphenyl], the IC50 on human recombinant COX-2 [7] is 90 nM; on human recombinant COX-1 [11] it was 4610 nM. The “SI (Selectivity Index)” value at human recombinant COX-2 [7] (SI = COX-1 IC50/COX-2 IC50, human assay kit, this study) turned out to be 48. The “serum levels of IL-6 and TNF-α” value in the series on IL-6 and TNF-α is reported as “comparable or even superior to that of celecoxib”.
